The IC50 is the concentration at which inhibition is half-maximal. Read a low IC50 as higher potency.

Our source for the IC50 values is publication PMC3659552 (Journal of Ginseng Research, 2011).

This assay addresses AChE (acetylcholineserase). As to the kind of experiment: Ellman spectrophotometric assay, […] nm. The class given is biochemical, Electrophorus electricus. The settings on record: acetylthiocholine iodide substrate; pH 8.0; 10 min preincubation.

`Nc1c2c(nc3ccccc13)CCCC2` [tacrine] gave a 50% inhibitory concentration (IC50) of 825 nM.
